Values of other authors in patent US7294691B1, “Soluble secreted α2δ-2calcium channel subunit polypeptide” (Warner Lambert Company, priority 2000, dated 2007).

Tested on: [^3H]gabapentin binding site
Conditions: saturation binding in the presence of L-leucine; reduces [^3H]gabapentin binding affinity

SMILES: CC(C)C[C@H](N)C(=O)O [L-Leucine]
- interaction with the [^3H]gabapentin binding site: competitive interaction
